Where “and” joins values, the source holds several entries; their conditions need not be identical. Identical values can stand only once.
System: patients with PoPH
Assay: PORTICO safety: treatment-emergent AEs, SAEs, AESIs, deaths, discontinuations
Format: in vivo
Description: For the evaluation of treatment-emergent safety endpoints in the DB phase, the observation period for each individual subject started at the time of the first administration of macitentan or placebo and ended with the start of OL treatment or 30 days after DB treatment discontinuation (whichever occurred first). The safety variables listed below apply to the DB treatment-emergent period and the macitentan treatment-emergent period. The DB treatment-emergent period was defined as the period from the DB treatment start date up to the EOT-DB+30 days or to the EOT-DB for patients entering OL. The macitentan treatment-emergent period was defined as the period from the first intake of macitentan up to end of macitentan treatment (EOMT)+30 days. EOMT was defined as EOT-DB (for patient who received macitentan only in the DB period) or EOT-OL when applicable. For patients entering OLE, the EOMT is EOT-OL. • Treatment-emergent AEs • Treatment-emergent deaths • Treatment-emergent serious adverse events (SAEs) • AEs leading to premature discontinuation of study treatment • Occurrence of post-baseline LFT (ALT and/or AST) abnormalities, classified as: • ≥3×ULN; • ≥5×ULN; • ≥8×ULN; • ≥3×ULN and <5×ULN; • […] and <8×ULN. • Occurrence of post-baseline ALT and/or AST abnormality 3×ULN and concomitant (i.e., at the same time) total bilirubin ≥2×ULN • Occurrence of post-baseline ALT and/or AST abnormality ≥3×ULN and concomitant (i.e., at the same time) total bilirubin ≥2×ULN and increased as compared to baseline • Occurrence of hemoglobin abnormalities, classified as: • ≤80 g/L, • >80 and ≤100 g/L, • decrease from baseline ≥20 g/L and <50 g/L, • decrease from baseline ≥50 g/L, • <100 g/L and concurrent (i.e., at the same time) decrease from baseline ≥20 g/L. • Other treatment-emergent marked laboratory abnormalities • Change from baseline/macitentan baseline to EOT-DB/EOMT in vital signs • Change from baseline/macitentan baseline to EOT-DB/EOMT in laboratory variables • Change from baseline/macitentan baseline to EOT-DB/EOMT in Child-Pugh classification • Change from baseline/macitentan baseline to EOT-DB/EOMT in MELD score
(i) Adverse events: All AEs occurring after study start (i.e., signing of informed consent) and up to 30 days after study treatment discontinuation were required to be recorded. AEs still ongoing more than 30 days after study treatment discontinuation were required to be followed up until they were no longer considered clinically relevant.
(ii) Serious adverse events, including associated with study design or protocol-mandated procedures: During the screening period, all SAEs occurring after study start (i.e., signing of informed consent) were required to be recorded (whether considered associated or not associated to study design or study-mandated procedures). All SAEs, regardless of investigator-attributed causal relationship, occurring during the treatment period up to the end of the 30-day follow up period, were required to be reported. SAEs still ongoing at the EOS visit were required to be followed up until resolution or stabilization, or until the event outcome was provided, e.g., death. New SAEs occurring after the 30-day follow-up period were required to be reported within 24 hours.
In addition, the following adverse events of special interest (AESIs) were analyzed: • “Edema and fluid retention”
Any treatment-emergent AE with PT listed in the Standardised MedDRA Query (SMQ) “Haemodynamic oedema, effusions and fluid overload (SMQ)” or with PT equal to “Pulmonary congestion” defined in the latest available MedDRA version, with the exception of PTs containing “site”. • “Anemia”

[1] = macitentan DB + OL phase, Macitentan treated set, N = 84
[2] = macitentan DB+OL phase, MTS N=84

## CCCNS(=O)(=O)Nc1ncnc(OCCOc2ncc(Br)cn2)c1-c1ccc(Br)cc1 [macitentan, N-[5-(4-Bromophenyl)-6-[2-[(5-bromo-2-pyrimidinyl)oxy]ethoxy]-4-pyrimidinyl]-N′-propylsulfamide]
[1]
  AEs of special interest Hepatic disorders, Blood bilirubin increased: 1 (1.2) n (%)
  AEs of special interest Hepatic disorders, Hepatocellular carcinoma: 1 (1.2) n (%)
  AEs of special interest Hepatic disorders, Jaundice: 1 (1.2) n (%)
  AEs of special interest Hepatic disorders, Liver function test abnormal: 1 (1.2) n (%)
  AEs of special interest Hepatic disorders, Liver function test increased: 1 (1.2) n (%)
  AEs of special interest Hepatic disorders, Portal hypertensive gastropathy: 1 (1.2) n (%)
  AEs of special interest Hepatic disorders, Portopulmonary hypertension: 1 (1.2) n (%)
  AEs of special interest Hepatic disorders, Subjects with atleast one AE: 13 (15.5) n (%)
  AEs of special interest Hepatic disorders, Total bile acids increased: 2 (2.4) n (%)
  AEs of special interest Hepatic disorders, Varices oesophageal: 1 (1.2) n (%)
  Subjects with at least one AE: 74 (88.1) n (%)
  Subjects with at least one SAE: 25 (29.8) n(%)
  Treatment-emergent AE, Abdominal pain: 4 (4.8) n (%)
  Treatment-emergent AE, Acute kidney injury: 3 (3.6) n (%)
  Treatment-emergent AE, Anaemia: 12 (14.3) n (%)
  Treatment-emergent AE, Arthralgia: 3 (3.6) n (%)
  Treatment-emergent AE, Ascites: 4 (4.8) n (%)
  Treatment-emergent AE, Asthenia: 4 (4.8) n (%)
  Treatment-emergent AE, Bronchitis: 8 (9.5) n (%)
  Treatment-emergent AE, Dizziness: 7 (8.3) n (%)
  Treatment-emergent AE, Dyspnoea: 4 (4.8) n (%)
  Treatment-emergent AE, Dyspnoea exertional: 3 (3.6) n (%)
  Treatment-emergent AE, Fall: 3 (3.6) n (%)
  Treatment-emergent AE, Haemoglobin decreased: 6 (7.1) n (%)
  Treatment-emergent AE, Headache: 16 (19.0) n (%)
  Treatment-emergent AE, Hepatic encephalopathy: 4 (4.8) n (%)
  Treatment-emergent AE, Hypokalaemia: 3 (3.6) n (%)
  Treatment-emergent AE, Hypotension: 4 (4.8) n (%)
  Treatment-emergent AE, Influenza like illness: 3 (3.6) n (%)
  Treatment-emergent AE, Iron deficiency anaemia: 3 (3.6) n (%)
  Treatment-emergent AE, Muscle spasms: 3 (3.6) n (%)
  Treatment-emergent AE, Nausea: 4 (4.8) n (%)
  Treatment-emergent AE, Oedema peripheral: 23 (27.4) n (%)
  Treatment-emergent AE, Pain in extremity: 7 (8.3) n (%)
  Treatment-emergent AE, Pruritus: 3 (3.6) n (%)
  Treatment-emergent AE, Pulmonary arterial hypertension: 3 (3.6) n (%)
  Treatment-emergent AE, Rash: 3 (3.6) n (%)
  Treatment-emergent AE, Rhinitis: 5 (6.0) n (%)
  Treatment-emergent AE, Right ventricular failure: 6 (7.1) n (%)
  Treatment-emergent AE, Urinary tract infection: 3 (3.6) n (%)
  Treatment-emergent AE, Viral upper respiratory tract infection: 4 (4.8) n (%)
  Treatment-emergent AE, Vomiting: 3 (3.6) n (%)
  Treatment-emergent SAE, Abdominal pain: 1 (1.2) n(%)
  Treatment-emergent SAE, Acute kidney injury: 2 (2.4) n(%)
  Treatment-emergent SAE, Alveolitis: 1 (1.2) n(%)
  Treatment-emergent SAE, Anaemia: 2 (2.4) n(%)
  Treatment-emergent SAE, Ascites: 2 (2.4) n(%)
  Treatment-emergent SAE, Asthma: 1 (1.2) n(%)
  Treatment-emergent SAE, Atrial fibrillation: 1 (1.2) n(%)
  Treatment-emergent SAE, Bronchitis: 1 (1.2) n(%)
  Treatment-emergent SAE, Chronic kidney disease: 1 (1.2) n(%)
  Treatment-emergent SAE, Fall: 1 (1.2) n(%)
  Treatment-emergent SAE, Fluid overload: 1 (1.2) n(%)
  Treatment-emergent SAE, Gastrointestinal haemorrhage: 1 (1.2) n(%)
  Treatment-emergent SAE, Haemoptysis: 1 (1.2) n(%)
  Treatment-emergent SAE, Hepatic encephalopathy: 3 (3.6) n(%)
  Treatment-emergent SAE, Hepatocellular carcinoma: 1 (1.2) n(%)
  Treatment-emergent SAE, Humerus fracture: 1 (1.2) n(%)
  Treatment-emergent SAE, Hypersensitivity: 1 (1.2) n(%)
  Treatment-emergent SAE, Ileus: 1 (1.2) n(%)
  Treatment-emergent SAE, Intervertebral disc protrusion: 1 (1.2) n(%)
  Treatment-emergent SAE, Iron deficiency anaemia: 1 (1.2) n(%)
  Treatment-emergent SAE, Left ventricular failure: 1 (1.2) n(%)
  Treatment-emergent SAE, Liver function test increased: 1 (1.2) n(%)
  Treatment-emergent SAE, Localised oedema: 1 (1.2) n(%)
  Treatment-emergent SAE, Lung infection: 1 (1.2) n(%)
  Treatment-emergent SAE, Malignant ascites: 1 (1.2) n(%)
  Treatment-emergent SAE, Melaena: 2 (2.4) n(%)
  Treatment-emergent SAE, Oedema peripheral: 2 (2.4) n(%)
  Treatment-emergent SAE, Osteitis: 1 (1.2) n(%)
  Treatment-emergent SAE, Pneumonia: 1 (1.2) n(%)
  Treatment-emergent SAE, Presyncope: 1 (1.2) n(%)
  Treatment-emergent SAE, Priapism: 1 (1.2) n(%)
  Treatment-emergent SAE, Pulmonary arterial hypertension: 2 (2.4) n(%)
  Treatment-emergent SAE, Pulmonary toxicity: 1 (1.2) n(%)
  Treatment-emergent SAE, Right ventricular failure: 4 (4.8) n(%)
  Treatment-emergent SAE, Staphylococcal infection: 1 (1.2) n(%)
  Treatment-emergent SAE, Subdural haematoma: 1 (1.2) n(%)
  Treatment-emergent SAE, Syncope: 1 (1.2) n(%)
  Treatment-emergent SAE, Thrombocytopenia: 1 (1.2) n(%)
  Treatment-emergent SAE, Tinnitus: 1 (1.2) n(%)
  Treatment-emergent SAE, Troponin I increased: 1 (1.2) n(%)
  Treatment-emergent SAE, Urosepsis: 1 (1.2) n(%)
Macitentan DB+OL phase
  Anemia AEs reported as SAEs: 2 and 3
  Patients who discontinued treatment due to AEs: 10 patients
  Patients who had an SAE: 29.8%
  Patients with edema and fluid retention AEs reported as serious: 2 patients
  Patients with hepatic disorder AEs reported as SAEs: 5 patients
  Peripheral edema leading to discontinuation of treatment: 2 patients
Macitentan DB+OL phase (13 patients)
  Patients with hepatic disorder AEs: 15.5%
Macitentan DB+OL phase (22 patients)
  Patients with anemia AEs: 26.2%
Macitentan DB+OL phase (26 patients)
  Patients with edema and fluid retention AEs: 31.0%
Macitentan DB+OL phase, 3 patients
  Decreased hemoglobin considered related to study treatment: 3.6%
Macitentan DB+OL phase, 3 patients each
  Most frequent severe AEs (peripheral edema, right ventricular failure, acute kidney injury), each: 3.6%
Macitentan DB+OL phase, 4 patients
  Anemia considered related to study treatment: 4.8%
Macitentan DB+OL phase, 10 patients
  Peripheral edema considered related to study treatment: 11.9%
Macitentan DB+OL phase, 11 patients
  Headache considered related to study treatment: 13.1%
Macitentan DB+OL phase, 19 patients
  Patients with AEs of severe intensity: 22.6%
[2]
  Subjects with AE leading to study drug discontinuation: 10 (11.9) n (%)
  Subjects with Drug-Related AE: 33 (39.3) n (%)
  Subjects with Drug-Related serious AE: 8 (9.5) n (%)
  Subjects with Fatal serious AE: 4 (4.8) n (%)
  Subjects with Serious AE: 25 (29.8) n (%)
  Subjects with Severe AE: 19 (22.6) n (%)
Macitentan DB+OL phase, Macitentan treated set N=84
  Subjects with at least one AE: 74 (88.1) n (%)
Patients with PoPH and mild or moderate liver impairment
  Overall safety and tolerability: good safety profile and is well tolerated
